This note sets out measurements from US5104884A, “Triazolyl quinoline derivatives” (Alkaloida Vegyeszeti Gyar, priority 1985, dated 1992).

The nature of data set [1]: carrageenin edema inhibition in rats (antiphlogistic effect), Winter method. The data set is classed as in vivo, male Wistar rats. Conditions: Rattus norvegicus, po; for inhibition in vivo at 25 mg/kg: 25 mg/kg p.o.; for inhibition in vivo at 50 mg/kg: 50 mg/kg p.o.; for inhibition in vivo at 100 mg/kg: 100 mg/kg p.o. The procedure: Thus the orally administered compounds of the general Formula (I) efficiently reduce acute inflammatory processes. According to the method of Winter [Proc. Soc. Exp. Biol. Med. 111, 544 (1962)] carrageenin edema is induced and evaluated on male Wistar rats fasted for 16 hours body weight 160-180 g. Percental inhibition is calculated from the average edema values of the groups treated with the test compound on the one hand and with carrier carboxy methyl cellulose, CMC; control on the other. ED50 values are determined by means of regression analysis of the inhibition values. The test compounds are administered through a stomach canule in the form of a 1% carboxy methyl cellulose (CMC) suspension, one hour before introducing the carrageenin injection.
In general terms: In the carrageenan paw model, swelling and tenderness develop within hours.

The nature of data set [2]: ulcerogenic effect (stomach haemorrhage and ulcers). The data set is classed as in vivo, male Wistar rats. The settings on record: rat, po, acute test, rats, five hours after treatment, read-out: UD50.
Description: Five hours after treatment the animals are sacrificed and their stomachs are placed into a 2.5% formaline solution. The number and rate of punctiform haemorrhage and ulcers is evaluated according to the following scale:
1=some punctiform haemorrhage (<10);
2=diffuse haemorrhage or small ulcer (<2 mm);
3=two or more minor small ulcer (<2 mm);
4=one or more large ulcer (>2 mm).
Data set [3] in a line: hot (56° C.) plate test on mice (analgesic effect). Type of data set: in vivo, male and female CFLP strain mice. Conditions: Mus musculus, po, 1 h, read-out: Lengthening of reaction time in %; for change in vivo at 100 mg/kg: 100 mg/kg p.o. As to the method: The analgesic effect of the compounds of the present invention is tested according to the hot (56° C.) plate test on male and female CFLP strain mice weighing 18-22 g. The point of time of the appearence of the deterring reaction Abwehrreaktion is determined and related to the latent time measured on the control group Woolfe and McDonald 1944. At least 10 animals are used per dose. […] The test is carried out on separated male Wistar rats weighing 180-210 g and fasted for 16 hours. The test compounds are suspended in 1% carboxy methyl cellulose and administered orally in a dose of 10 ml/kg.

Data set [4] in a line: adjuvant induced arthritis in rats, method of Newbold. Type of data set: in vivo, male Wistar rats. Conditions: Rattus norvegicus, po, 504 h, read-out: Percental inhibition of the growth of paw volume, on the 21st day. As to the method:
According to the method of Newbold 0.1 ml of Freund complet adjuvant (Difco Lab. Mich. […] The volume of the hind paws is measured before and 21 days after the administration of the adjuvant with the aid of a mercury plethysmometer. […] In Table II the "percental inhibition of the growth of paw volume" relates to the value determined on the 21st day. […] The tests show furthermore that the compounds of the present invention are active not only in healing morphological deformations but effect in a desirable and useful manner the functional condition and fitness of the feet, moreover the general physical state and condition of the animals, too.

Setting [5] is: read-out: Percental inhibition of paw volume.
Setting [6] is: rats, read-out: Percental inhibition of paw volume.
[7] abbreviates: carrageenin edema, rats, p.o., regression analysis, read-out: ED50.

Where two headings read alike, the source gives them in different places.

By ED50 is commonly meant the dose that gives a 50% effect, or the effect in half of the subjects. In data set [1], `COc1ccc2c(c1)c(CC(=O)O)c(C)n2C(=O)c1ccc(Cl)cc1` [Indomethacin, reference compound] displayed an ED50 of 4.1 mg/kg. In data set [1] (setting [5]), the inhibition in vivo at 1 mg/kg is 28%, the inhibition in vivo at 2 mg/kg turned out to be 40%, the inhibition in vivo at 4 mg/kg was determined as 47% and the inhibition in vivo at 8 mg/kg amounted to 64%. For the same compound, the inhibition in vivo at 12 mg/kg in data set [1] (setting [5]) was found to be 67%. Besides, in data set [2], the TD50 at 5 h is 6.3 mg/kg.

As to `COc1ccc2cc([C@H](C)C(=O)O)ccc2c1` [Naproxen, reference compound], the inhibition in vivo at 12.5 mg/kg in data set [1] (12.5 mg/kg p.o., rats, read-out: Percental inhibition of paw volume) was found to be 33%. Besides, in data set [1] (setting [6]), the inhibition in vivo at 25 mg/kg is 49%, the inhibition in vivo at 50 mg/kg amounted to 64% and the inhibition in vivo at 100 mg/kg was found to be 71%. In data set [1] (setting [7]), the ED50 turned out to be 28.7 mg/kg. Further, in data set [3] (12.5 mg/kg p.o.), the change in vivo at 12.5 mg/kg was 25%. The change in vivo at 25 mg/kg in data set [3] (25 mg/kg p.o.) came to 31%. For the same compound, in data set [3] (50 mg/kg p.o.), the change in vivo at 50 mg/kg is 45%. For the same compound, the change in vivo at 100 mg/kg in data set [3] was 49%. Besides, the inhibition in vivo at 12.5 mg/kg in data set [4] (12.5 mg/kg p.o.) was found to be 16.8%. The inhibition in vivo at 25 mg/kg in data set [4] (25 mg/kg p.o. daily for two weeks) came out at 28.4%.

Take `CCCCC1C(=O)N(c2ccccc2)N(c2ccccc2)C1=O` [Phenylbutazon, reference compound]: in data set [1] (setting [6]), the inhibition in vivo at 25 mg/kg stood at 21%, the inhibition in vivo at 50 mg/kg was determined as 42% and the inhibition in vivo at 100 mg/kg was determined as 45%. In addition, in data set [1] (200 mg/kg p.o., rats, read-out: Percental inhibition of paw volume), the inhibition in vivo at 200 mg/kg was 66%. For the same compound, the ED50 in data set [1] (setting [7]) was found to be 101 mg/kg. In addition, in data set [3], the change in vivo at 100 mg/kg was 29%. The change in vivo at 150 mg/kg in data set [3] (150 mg/kg p.o.) worked out at 42%. For the same compound, the change in vivo at 200 mg/kg in data set [3] (200 mg/kg p.o.) came out at 44%. In addition, the inhibition in vivo at 50 mg/kg in data set [4] (50 mg/kg p.o.) was 18.5%.
